In patent US9956233B2 (priority 2015, dated 2018):

Assays:
[1] = system: Tfam; test: Tfam protein and mRNA expression; settings: N27 cells, 10-100 μM, 24 h
[2] = system: AMPK; test: AMPK activation, phosphorylation at T172; assay type: cell-based; settings: N27 cells, 10-100 μM, 24 h
Excerpt: In this example we assessed whether mito-Met alters mitochondrial biogenesis in a dopaminergic cell model.

[3] = diabetic patients; cited from earlier work
[4] = system: complex I in the mitochondrial respiratory chain; settings: cited from earlier work
[5] = system: primary dopaminergic neurons; test: MPP+ toxicity in primary mesencephalic neuronal cultures, TH+ neurite length; assay type: cell-based; settings: 10 μM, 24 h
Protocol: Primary […] neurons were treated with 10 μM MPP+ alone or co-treated with 100-300 nM mito-Met for 24 h. […] FIG. 7B depicts quantification of neurite length of TH+ neurons.
Primary mesencephalic neuronal cultures were treated for 24 h with 10 μM MPP^+ alone or co-treated with 100 and 300 nM mito-Met, dopaminergic neurotoxicity was assessed by TH immunocytochemistry (FIG. 7A) and quantification of neurite length of TH^+ neurons (FIG. 7B). MPP^+ reduced the neurite length of TH-immunoreactive neurons to almost 45% of the vehicle-treated group, indicating significant dopaminergic neurotoxicity.

Row | SMILES | protein levels of Tfam [1] | phosphorylation of AMPK Thr172 [2] | tolerated daily doses [3] | effect on mitochondrial complex-1 activity ([4]; at approximately 0.1 mM) | inhibition of complex I in the mitochondrial respiratory chain ([4]; in vitro, millimolar concentrations) | neurite length of TH-immunoreactive neurons, of the vehicle-treated group [5] [%]
1 | CN(C)C(=N)N=C(N)N [metformin, Metformin] | upregulated | significantly increased | 2-3 grams | does not affect | inhibit | 
2 | C[n+]1ccc(-c2ccccc2)cc1 [MPP^+] |  |  |  |  |  | ~45
